These results are taken from patent US8686044B2, “Amide derivative, pest control agent containing the amide derivative, and use of the amide derivative” (Mitsui Chemicals Agro, Inc., priority 2008, dated 2014).

In test [1] the test system is Spodoptera litura. In words: Pesticidal test against Spodoptera litura (cabbage leaf dip). It counts as in vivo. Particulars: foliar, 144 h, 2-stage larvae, examined after 6 days, 25° C., read-out: pesticidal rate; for pest or weed control at 1 ppm: concentration 1 ppm; for pest or weed control at 10 ppm: concentration 10 ppm. How it is done:
(§1) Pesticidal Test against Spodoptera litura A piece of a cabbage leaf was immersed for 30 seconds in a chemical solution in which a test compound had been prepared at a predetermined concentration, and air-dried, and then put into a 7 cm polyethylene cup having a filter paper laid on the bottom thereof, and 2-stage larvae of Spodoptera litura were released. They were left to stand in a thermostatic chamber at 25° C., and the numbers of the living pests and the dead pests were examined after 6 days. The test was carried out with five larvae per group in two replicates. Further, the following compound (A) disclosed in the pamphlet of International Publication WO 2005/073165 was used as a comparative compound.

The subject of test [2] is Plutella xylostella. The experiment in a line: Pesticidal test against Plutella xylostella (cabbage leaf dip). The following applies: foliar, 144 h, 2-stage larvae, examined after 6 days, 25° C., read-out: pesticidal rate; for pest or weed control at 10 ppm: concentration 10 ppm; for pest or weed control at 1 ppm: concentration 1 ppm. It counts as in vivo. How it is done: as §1, with “Plutella xylostella” for “Spodoptera litura”, “above” for “following”, “(A)” for “(A) disclosed in the pamphlet of International Publication WO 2005/073165”

Bounds are passed on as bounds.

For the compound `N#Cc1ccc(C(=O)Nc2c(Cl)cc(C(F)(C(F)(F)F)C(F)(F)F)cc2C(F)(F)F)cc1NC(=O)c1ccccc1` [1-470], the pest or weed control at 1 ppm in test [1] is at least 70%. Further, the pest or weed control at 10 ppm in test [2] was at least 70%.

With `N#Cc1ccc(C(=O)Nc2c(Cl)cc(C(F)(C(F)(F)F)C(F)(F)F)cc2C(F)(F)F)cc1NC(=O)c1cccnc1Cl` [1-506], the pest or weed control at 10 ppm in test [1] and in test [2] was at least 70% in each case.

As for `N#Cc1ccc(C(=O)Nc2c(Cl)cc(C(F)(C(F)(F)F)C(F)(F)F)cc2C(F)(F)F)cc1NC(=O)c1ccc(Cl)nc1` [1-513], the pest or weed control at 1 ppm in test [1] and in test [2] was at least 70% throughout.

`CN(C(=O)c1ccc(Cl)nc1)c1cc(C(=O)Nc2c(Cl)cc(C(F)(C(F)(F)F)C(F)(F)F)cc2C(F)(F)F)ccc1C#N` [2-513]: in test [1], the pest or weed control at 10 ppm was at least 70%. In addition, the pest or weed control at 1 ppm in test [2] was at least 70%.

Take `CN(C(=O)c1ccc(C#N)nc1)c1cc(C(=O)Nc2c(Cl)cc(C(F)(C(F)(F)F)C(F)(F)F)cc2C(F)(F)F)ccc1C#N` [2-518]: the pest or weed control at 10 ppm in test [1] and in test [2] was at least 70% each time.

`O=C(Nc1cccc(C(=O)Nc2c(Br)cc(C(F)(C(F)(F)F)C(F)(F)C(F)(F)F)cc2Br)c1)c1ccccc1` (stereo not drawn) [6-38]: the pest or weed control at 1 ppm in test [1] and in test [2] was at least 70% throughout.

Turning to `N#Cc1ccc(C(=O)Nc2cccc(C(=O)Nc3c(Br)cc(C(F)(C(F)(F)F)C(F)(F)C(F)(F)F)cc3Br)c2)cc1` (stereo not drawn) [6-46], the pest or weed control at 1 ppm in test [1] and in test [2] was at least 70% each time.

Take `O=C(Nc1cccc(C(=O)Nc2c(Br)cc(C(F)(C(F)(F)F)C(F)(F)C(F)(F)F)cc2Br)c1)c1ccc(Cl)nc1` (stereo not drawn) [6-60]: the pest or weed control at 1 ppm in test [1] is at least 70%. For the same compound, the pest or weed control at 10 ppm in test [2] is at least 70%.

As to `N#Cc1cccc(C(=O)Nc2cccc(C(=O)Nc3c(I)cc(C(F)(C(F)(F)F)C(F)(F)C(F)(F)F)cc3I)c2)c1` (stereo not drawn) [6-78], the pest or weed control at 1 ppm in test [1] and in test [2] was at least 70% each time.

`O=C(Nc1cccc(C(=O)Nc2c(I)cc(C(F)(C(F)(F)F)C(F)(F)C(F)(F)F)cc2I)c1)c1ccc(Cl)nc1` (stereo not drawn) [6-93]: in test [1], the pest or weed control at 1 ppm was at least 70%. The pest or weed control at 10 ppm in test [2] is at least 70%.

As for `O=C(Nc1cccc(C(=O)Nc2c(Cl)cc(C(F)(C(F)(F)F)C(F)(F)F)cc2C(F)(F)F)c1)c1ccccc1` [6-111], the pest or weed control at 1 ppm in test [1] and in test [2] was at least 70% each time.

Regarding `N#Cc1cccc(C(=O)Nc2cccc(C(=O)Nc3c(Br)cc(C(F)(C(F)(F)F)C(F)(F)F)cc3C(F)(F)F)c2)c1` [6-288], the pest or weed control at 1 ppm in test [1] and in test [2] was at least 70% each time.

`N#Cc1ccc(C(=O)Nc2cccc(C(=O)Nc3c(Br)cc(C(F)(C(F)(F)F)C(F)(F)F)cc3C(F)(F)F)c2)cc1` [6-289]: the pest or weed control at 1 ppm in test [1] and in test [2] was at least 70% throughout.

`N#Cc1ccc(C(=O)Nc2cccc(C(=O)Nc3c(Br)cc(C(F)(C(F)(F)F)C(F)(F)F)cc3C(F)(F)F)c2)c(F)c1` [6-300]: the pest or weed control at 1 ppm in test [1] and in test [2] was at least 70% in each case.

Regarding `O=C(Nc1cccc(C(=O)Nc2c(I)cc(C(F)(C(F)(F)F)C(F)(F)F)cc2C(F)(F)F)c1)c1ccccc1` [6-424], the pest or weed control at 1 ppm in test [1] and in test [2] was at least 70% in each case.

For the compound `O=C(Nc1c(I)cc(C(F)(C(F)(F)F)C(F)(F)F)cc1C(F)(F)F)c1cccc(NC(=O)c2ccc(Cl)cc2Cl)c1` [6-448], in test [1], the pest or weed control at 1 ppm is at least 70%. The pest or weed control at 10 ppm in test [2] is at least 70%.

Regarding `O=C(Nc1c(I)cc(C(F)(C(F)(F)F)C(F)(F)F)cc1C(F)(F)F)c1cccc(NC(=O)c2ccc([N+](=O)[O-])cc2Cl)c1` [6-454], the pest or weed control at 10 ppm in test [1] and in test [2] was at least 70% throughout.

With `O=C(Nc1cccc(C(=O)Nc2c(I)cc(C(F)(C(F)(F)F)C(F)(F)F)cc2C(F)(F)F)c1)c1ccc(Cl)nc1` [6-467], the pest or weed control at 1 ppm in test [1] and in test [2] was at least 70% throughout.

In the case of `O=C(Nc1cccc(C(=O)Nc2c(I)cc(C(F)(C(F)(F)F)C(F)(F)C(F)(F)F)cc2C(F)(F)F)c1)c1ccccc1` (stereo not drawn) [6-502], the pest or weed control at 1 ppm in test [1] and in test [2] was at least 70% each time.

`O=C(Nc1cccc(C(=O)Nc2c(I)cc(C(F)(C(F)(F)F)C(F)(F)C(F)(F)F)cc2C(F)(F)F)c1)c1ccc(Cl)nc1` (stereo not drawn) [6-545]: the pest or weed control at 1 ppm in test [1] and in test [2] was at least 70% throughout.

Consider `O=C(Nc1cccc(C(=O)Nc2c(C(F)(F)F)cc(C(F)(C(F)(F)F)C(F)(F)F)cc2C(F)(F)F)c1)c1ccccc1` [6-804], for which the pest or weed control at 1 ppm in test [1] and in test [2] was at least 70% throughout.

As for `N#Cc1cccc(C(=O)Nc2cccc(C(=O)Nc3c(C(F)(F)F)cc(C(F)(C(F)(F)F)C(F)(F)F)cc3C(F)(F)F)c2)c1` [6-824], the pest or weed control at 1 ppm in test [1] and in test [2] was at least 70% each time.

Turning to `N#Cc1ccc(C(=O)Nc2cccc(C(=O)Nc3c(C(F)(F)F)cc(C(F)(C(F)(F)F)C(F)(F)F)cc3C(F)(F)F)c2)cc1` [6-825], the pest or weed control at 1 ppm in test [1] and in test [2] was at least 70% each time.

For the compound `O=C(Nc1c(C(F)(F)F)cc(C(F)(C(F)(F)F)C(F)(F)F)cc1C(F)(F)F)c1cccc(NC(=O)c2cccnc2Cl)c1` [6-840], the pest or weed control at 1 ppm in test [1] and in test [2] was at least 70% in each case.

As for `O=C(Nc1cccc(C(=O)Nc2c(I)cc(C(F)(C(F)(F)F)C(F)(F)F)cc2C(F)(F)F)c1F)c1ccc(F)cc1Cl` [6-1755], the pest or weed control at 1 ppm in test [1] and in test [2] was at least 70% throughout.

Turning to `O=C(Nc1cccc(C(=O)Nc2c(Cl)cc(C(F)(C(F)(F)F)C(F)(F)F)cc2Br)c1F)c1ccccc1` [6-5902], the pest or weed control at 1 ppm in test [1] is at least 70%.

As to `CS(=O)(=O)c1ccc(C(=O)Nc2cccc(C(=O)Nc3c(I)cc(C(F)(C(F)(F)F)C(F)(F)F)cc3C(F)(F)F)c2)c(Cl)c1` [6-5912], the pest or weed control at 1 ppm in test [1] and in test [2] was at least 70% throughout.

As for `O=C(Nc1cccc(C(=O)Nc2c(Br)cc(C(F)(F)C(F)(F)F)cc2C(F)(F)F)c1)c1ccccc1` [6-5913, 3-benzamide-N-(2-bromo-4-(perfluoroethyl)-6-(trifluoromethyl)phenyl)benzamide], the pest or weed control at 10 ppm in test [1] and in test [2] was at least 70% each time.

Turning to `CN(C(=O)c1ccccc1)c1cccc(C(=O)Nc2c(Br)cc(C(F)(C(F)(F)F)C(F)(F)C(F)(F)F)cc2Br)c1` (stereo not drawn) [7-38], the pest or weed control at 1 ppm in test [1] and in test [2] was at least 70% each time.

As for `CN(C(=O)c1cccc(C#N)c1)c1cccc(C(=O)Nc2c(Br)cc(C(F)(C(F)(F)F)C(F)(F)C(F)(F)F)cc2Br)c1` (stereo not drawn) [7-45], the pest or weed control at 1 ppm in test [1] and in test [2] was at least 70% in each case.

As for `CN(C(=O)c1ccc(C#N)cc1)c1cccc(C(=O)Nc2c(Br)cc(C(F)(C(F)(F)F)C(F)(F)C(F)(F)F)cc2Br)c1` (stereo not drawn) [7-46], the pest or weed control at 1 ppm in test [1] and in test [2] was at least 70% throughout.

Consider `CN(C(=O)c1ccc(Cl)nc1)c1cccc(C(=O)Nc2c(Br)cc(C(F)(C(F)(F)F)C(F)(F)C(F)(F)F)cc2Br)c1` (stereo not drawn) [7-60], for which the pest or weed control at 1 ppm in test [1] and in test [2] was at least 70% each time.
